From ChEMBL document CHEMBL5505984, “Carbazole to indolazepinone scaffold morphing leads to potent cell-active dengue antivirals” (Eur J Med Chem, 2024)
“And” between values parts separate entries of the source, which are not always exact repeats. Equal entries are not always repeated. The source made the active and inactive calls. No cut-off for these calls is given here.

Legend:
dengue virus type 2 [1] = test: Antiviral activity Dengue virus 2 by cell based assay; format: functional, organism-based
dengue virus type 2 [2] = test: Antiviral activity against Dengue virus 2 infected in human Huh-7 cells assessed as clearance of viral RNA relative to control; format: functional; design: concentration or dose not given beside the values
dengue virus type 2 [3] = test: Antiviral activity against Dengue virus 2 infected in human Huh-7 cells assessed as clearance of viral RNA at 100 uM; format: functional, organism-based
dengue virus type 2 [4] = test: Antiviral activity against Dengue virus 2 infected in human Huh-7 cells assessed as reduction in plaque reduction relative to control; format: functional; design: scale not given: the % may be the effect or the level left
dengue virus type 1 = test: Antiviral activity Dengue virus 1 by cell based assay; format: functional, organism-based
dengue virus type 2 [5] = test: Antiviral activity Dengue virus 2 D2Y10 by cell based assay; format: functional, organism-based
dengue virus type 3 = test: Antiviral activity Dengue virus 3 by cell based assay; format: functional, organism-based
dengue virus type 4 = test: Antiviral activity Dengue virus 4 by cell based assay; format: functional, organism-based
Zika virus = test: Antiviral activity Zika virus by cell based assay; format: functional, organism-based
dengue virus type 2 [6] = test: Antiviral activity against Dengue virus 2 infected in human Huh-7 cells assessed as inhibition of plaque formation relative to control; format: functional
dengue virus type 2 [7] = test: Antiviral activity against Dengue virus 2 D2Y10 infected in human THP-1 cells assessed as inhibition of secondary antibody dependent enhancement-driven infection relative to control; format: functional
dengue virus type 2 [8] = test: Antiviral activity against Dengue virus 2 infected in human Huh-7 cells assessed as clearance of viral RNA at 10 uM; format: functional, organism-based

N/C(=N\O)c1cccc(CN2CCc3cn(Cc4cccc(Br)c4)c4cc(-c5cccc(/C(N)=N/O)c5)cc(c34)C2=O)c1
EC50 (dengue virus type 2 [1]): 1350 nM
Activity (dengue virus type 2 [2]): >95%

N/C(=N\O)c1cccc(-c2ccc3c(C(=O)N4CCN(c5cccc(/C(N)=N/O)c5)CC4)cn(Cc4ccc(Br)nc4)c3c2)c1
EC50 (dengue virus type 2 [1]): 1000 nM
Activity (dengue virus type 2 [3]): inactive

N/C(=N\O)c1cccc(CNC(=O)c2cn(Cc3cccc(Br)c3)c3ccc(-c4cccc(/C(N)=N/O)c4)cc23)c1
EC50 (dengue virus type 2 [1]): 1000 nM
Activity (dengue virus type 2 [2]): >95%

N/C(=N\O)c1cccc(CNC(=O)c2cn(Cc3cccc(Br)c3)c3cc(-c4cccc(/C(N)=N/O)c4)ccc23)c1
EC50 (dengue virus type 2 [1]): 6900 nM
Activity (dengue virus type 2 [2]): >95%

N/C(=N\O)c1cccc(-c2cc3c4c(cn(Cc5cccc(Br)c5)c4c2)CCN(Cc2ccc(/C(N)=N/O)s2)C3=O)c1
Activity (dengue virus type 2 [4]): <85%

N/C(=N\O)c1ccc(CNC(=O)c2cn(Cc3cccc(Br)c3)c3ccc(-c4cccc(/C(N)=N/O)c4)cc23)cc1
EC50 (dengue virus type 2 [1]): 2270 nM
Activity (dengue virus type 2 [2]): >95%

N/C(=N\O)c1cccc(NC(=O)c2nn(Cc3cccc(Br)c3)cc2NC(=O)c2cccc(/C(N)=N/O)c2)c1
EC50 (dengue virus type 2 [1]): 7020 nM

N/C(=N\O)c1ccc(CN2CCc3cn(Cc4ccc(Br)nc4)c4cc(-c5cccc(/C(N)=N/O)c5)cc(c34)C2=O)cc1
EC50 (dengue virus type 2 [1]): 960 nM
Activity (dengue virus type 2 [2]): >95%

N/C(=N\O)c1ccc(CN2CCc3cn(Cc4ccc(Br)cc4)c4cc(-c5ccc(/C(N)=N/O)s5)cc(c34)C2=O)cc1
EC50 (dengue virus type 1): 790 nM
EC50 (dengue virus type 2 [1]): 610 nM
EC50 (dengue virus type 2 [5]): 330 nM
EC50 (dengue virus type 3): 160 nM
EC50 (dengue virus type 4): 2250 nM
EC50 (Zika virus): 1420 nM
inhibition (INH) (dengue virus type 2 [6]): 100%
inhibition (INH) (dengue virus type 2 [7]): 60%
Activity (dengue virus type 2 [2]): >95%

N/C(=N\O)c1ccc(CN2CCc3cn(Cc4cccc(Br)c4)c4cc(-c5ccc(/C(N)=N/O)cc5)cc(c34)C2=O)cc1
Activity (dengue virus type 2 [4]): <85%

N/C(=N\O)c1cccc(NC(=O)c2cn(CCn3cc(Br)cn3)c3ccc(-c4cccc(/C(N)=N/O)c4)cc23)c1
EC50 (dengue virus type 2 [1]): 1830 nM
Activity (dengue virus type 2 [8]): inactive

N/C(=N\O)c1ccc(CN2CCc3cn(Cc4ccc(Br)cc4)c4cc(-c5cccc(/C(N)=N/O)c5)cc(c34)C2=O)cc1
EC50 (dengue virus type 1): 1260 nM
EC50 (dengue virus type 2 [1]): 100 nM
EC50 (dengue virus type 2 [5]): 100 nM
EC50 (dengue virus type 3): 120 nM
EC50 (dengue virus type 4): 950 nM
EC50 (Zika virus): 1760 nM
inhibition (INH) (dengue virus type 2 [6]): 97%
inhibition (INH) (dengue virus type 2 [7]): 100%
Activity (dengue virus type 2 [2]): >95%

N/C(=N\O)c1cccc(-c2ccc3c(C(=O)N4CCN(c5cccc(/C(N)=N/O)c5)CC4)cn(Cc4ccc(Br)cc4)c3c2)c1
EC50 (dengue virus type 2 [1]): 1130 nM
Activity (dengue virus type 2 [3]): inactive

N/C(=N\O)c1cccc(-c2ccc3c(C(=O)N4CCN(c5cccc(/C(N)=N/O)c5)CC4)cn(Cc4cccc(Br)c4)c3c2)c1
EC50 (dengue virus type 2 [1]): 1230 nM
Activity (dengue virus type 2 [3]): inactive

N/C(=N\O)c1cccc(NC(=O)c2cn(Cc3ccc(Br)cc3)c3ccc(-c4cccc(/C(N)=N/O)c4)cc23)c1
EC50 (dengue virus type 2 [1]): 4480 nM
Activity (dengue virus type 2 [2]): >95%

N/C(=N\O)c1ccc(CN2CCc3cn(Cc4cccc(Br)c4)c4cc(-c5cccc(/C(N)=N/O)c5)cc(c34)C2=O)cc1
EC50 (dengue virus type 1): 1030 nM
EC50 (dengue virus type 2 [1]): 660 nM
EC50 (dengue virus type 2 [5]): 380 nM
EC50 (dengue virus type 3): 1440 nM
EC50 (dengue virus type 4): 1240 nM
EC50 (Zika virus): 3400 nM
inhibition (INH) (dengue virus type 2 [6]): 95%
inhibition (INH) (dengue virus type 2 [7]): 100%
Activity (dengue virus type 2 [2]): >95%

N/C(=N\O)c1cccc(NC(=O)c2nn(Cc3cccc(Br)c3)c3ccc(-c4cccc(/C(N)=N/O)c4)cc23)c1
EC50 (dengue virus type 2 [1]): 2190 nM
Activity (dengue virus type 2 [2]): inactive

C#C[C@@]1(O)[C@H](O)[C@@H](CO)O[C@H]1n1ccc2c(N)ncnc21
EC50 (dengue virus type 1): 860 nM
EC50 (dengue virus type 2 [1]): 640 nM
EC50 (dengue virus type 2 [5]): 780 nM
EC50 (dengue virus type 3): 870 nM
EC50 (dengue virus type 4): 110 nM
EC50 (Zika virus): 120 nM
inhibition (INH) (dengue virus type 2 [6]): 100%
inhibition (INH) (dengue virus type 2 [7]): 100%

N/C(=N\O)c1cccc(NC(=O)c2cn(Cc3cccc(Br)c3)c3ccc(-c4cccc(/C(N)=N/O)c4)cc23)c1
EC50 (dengue virus type 2 [1]): 1800 nM
Activity (dengue virus type 2 [2]): >=95% and >95%
